What all share (assay type): in vivo, mouse
One assay concerns CD4. Briefly: mRNA expression of CD4 in PDAPP mice immunized with Aβ1-42 or a fragment, quantitative RT-PCR. Particulars: tissue not given. From the text:
(§1) RNA was isolated from brain tissues using the S.N.A.P.™ Total RNA Isolation Kit (Invitrogen, Carlsbad, Calif.) according to manufacturer's instructions, with the following modifications: the tissue was homogenized for 20 seconds using a rotor-stator homogenizer (Fisher Scientific). The DNA digestion step was repeated a second time following isopropanol precipitation.
(§2) Quantitative PCR assays were run on a Perkin Elmer 7700 Sequencer using methods and materials provided by Perkin Elmer (Applied Biosystems Division, Foster City, Calif.). Primers and fluorescent probes were obtained from Perkin Elmer; the sequences and concentrations of primers and probes used for the various assays are listed in Table 1 below. PCR reactions were set up using approximately 300 nM concentrations of each of the forward and reverse primers, 100 nM probe and RNA extracted from the tissue of interest (20 ng). Each reaction also included a standard RNA for comparison. Data were normalized to total RNA or to GAPDH. Standard curves were run using standard RNA prepared from the appropriate tissue (e.g., brain total RNA). Sample results were normalized to the amount of RNA measured by OD and or control message (e.g., GAPDH).
(§3) Thus, the efficacy of Aβ-treatment can be assessed by comparing the mRNA expression of such markers.

In a further assay the test system is IFN-γ. As to the kind of experiment: mRNA expression of IFN-γ in PDAPP mice immunized with Aβ1-42 or a fragment, quantitative RT-PCR. Particulars: tissue not given.
Description: as §1, §2, §3

The subject of the next assay is Igk. As to the kind of experiment: mRNA expression of Igk in PDAPP mice immunized with Aβ1-42 or a fragment, quantitative RT-PCR. Particulars: tissue not given.
Description: as §1, §2, §3

Another assay has as its system MCP-1. As to the kind of experiment: mRNA expression of MCP-1 in PDAPP mice immunized with Aβ1-42 or a fragment, quantitative RT-PCR. Particulars: tissue not given.
Description: as §1, §2, §3

The subject of a further assay is IgG-1. Briefly: mRNA expression of IgG-1 in PDAPP mice immunized with Aβ1-42 or a fragment, quantitative RT-PCR. To be noted: Fr cortex.
Description: as §1, §2, §3

This is an account of results in US6664442B2, “Selecting compounds to reduce inflammation associated with Alzheimer's disease” (Elan Pharmaceuticals, Inc., priority 2000, dated 2003).

Turning to “Aβ1-5: fragment of Aβ1-42 used to immunize PDAPP mice (DAEFR; Amyloid-beta protein 42; UniProt P05067 672-676, looked up, fragment)”, the “CD4 mRNA, ratio of Aβ-treated mice to non-Aβ-treated mice” value with CD4 amounted to 0.99X. For the same substance, the “IFN-γ mRNA, ratio of Aβ-treated mice to non-Aβ-treated mice” value in the assay on IFN-γ was “.8X”. In the assay on Igk, the “Igk mRNA, ratio of Aβ-treated mice to non-Aβ-treated mice” value was determined as 2.10X. Also, in the assay on MCP-1, the “MCP-1 mRNA, ratio of Aβ-treated mice to non-Aβ-treated mice” value is listed as 0.75X.
As for “Aβ1-42: amyloid β-peptide 1-42 used to immunize PDAPP mice”, the “IgG-1 mRNA, ratio of Aβ-treated mice to non-Aβ-treated mice” value with IgG-1 is recorded as 300X.
